target: T1, MAGL (Homo sapiens, UniProt Q99685); assay: 2-AG assay (MAGL inhibitory activity, hydrolysis of 2-arachidonoylglycerol to arachidonic acid followed by mass spectrometry); assay type: biochemical; settings: 8 μM 2-arachidonoylglycerol, 15 min pre-incubation, 30 min incubation at RT, RapidFire MS readout
T1 sequence (Q99685 1-303): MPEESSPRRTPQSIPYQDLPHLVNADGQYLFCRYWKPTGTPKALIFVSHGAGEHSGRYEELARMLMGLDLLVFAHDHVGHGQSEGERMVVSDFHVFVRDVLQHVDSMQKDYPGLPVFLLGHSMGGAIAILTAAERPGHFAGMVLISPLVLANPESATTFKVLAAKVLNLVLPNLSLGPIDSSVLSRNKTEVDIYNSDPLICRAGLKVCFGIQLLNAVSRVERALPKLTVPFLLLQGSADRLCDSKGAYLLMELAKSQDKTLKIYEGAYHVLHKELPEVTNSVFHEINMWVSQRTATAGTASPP
Outline: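 Human MAGL ([…] final) pre-incubated 15 min at RT with compound in 50 mM TRIS, 1 mM EDTA, 0.01% Tween-20, 2.5% DMSO; 8 μM 2-AG then added for 30 min at RT. Acetonitrile quench with d8-arachidonic acid; arachidonic acid measured by RapidFire SPE–MS/MS, activity from arachidonic acid/d8 ratio.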

Row | IC50 [nM] | Structure (SMILES)
1 | 1.57 | N#Cc1ccc(CC2CC3(C2)CN(C(=O)N2CC4(CC(n5cnc(C6(O)CC6)n5)C4)C2)C3)cc1C(F)(F)F [Example 368, 4-[[2-[6-[3-(1-hydroxycyclopropyl)-1,2,4-triazol-1-yl]-2-azaspiro[3.3]heptane-2-carbonyl]-2-azaspiro[3.3]heptan-6-yl]methyl]-2-(trifluoromethyl) benzonitrile]
2 | 49.3 | O=C(N1CC2(CC(n3cnc(C4(O)CC4)n3)C2)C1)N1CC2(CCN(Cc3ccc(S(=O)(=O)C(F)(F)F)cc3)C2)C1 [Example 369, [6-[3-(1-hydroxycyclopropyl)-1,2,4-triazol-1-yl]-2-azaspiro[3.3]heptan-2-yl]-[7-[[4-(trifluoromethylsulfonyl)phenyl]methyl]-2,7-diazaspiro[3.4]octan-2-yl]methanone]
3 | 0.9 | N#Cc1cc(CC2CC3(C2)CN(C(=O)N2CC4(CC(n5cnc(C6(O)CC6)n5)C4)C2)C3)cc(C(F)(F)F)c1 [Example 370, 3-[[2-[6-[3-(1-hydroxycyclopropyl)-1,2,4-triazol-1-yl]-2-azaspiro[3.3]heptane-2-carbonyl]-2-azaspiro[3.3]heptan-6-yl]methyl]-5-(trifluoromethyl) benzonitrile]
4 | 9.23 | CS(=O)(=O)c1cc(Cl)ccc1-c1ccc(C2CN(C(=O)N3CC4(CC(c5ccc(C(F)(F)F)nc5)C4)C3)C2)cc1 [Example 371, [3-[4-(4-chloro-2-methylsulfonyl-phenyl)phenyl]azetidin-1-yl]-[6-[6-(trifluoromethyl)-3-pyridyl]-2-azaspiro[3.3]heptan-2-yl]methanone]
5 | 1.12 | O=C(N1CC(c2ccc(NCC3(C(F)(F)F)CC3)nc2)C1)N1CC2(CC(n3cnc(C4(O)CC4)n3)C2)C1 [Example 372, [6-[3-(1-hydroxycyclopropyl)-1,2,4-triazol-1-yl]-2-azaspiro[3.3]heptan-2-yl]-[3-[6-[[1-(trifluoromethyl)cyclopropyl]methylamino]-3-pyridyl]azetidin-1-yl]methanone]
6 | 3.24 | O=C(N1CC(c2ccc(N3CC[C@@H](C(F)(F)F)C3)nc2)C1)N1CC2(CC(n3cnc(C4(O)CC4)n3)C2)C1 [Example 373, [6-[3-(1-hydroxycyclopropyl)-1,2,4-triazol-1-yl]-2-azaspiro[3.3]heptan-2-yl]-[3-[6-[(3R)-3-(trifluoromethyl)pyrrolidin-1-yl]-3-pyridyl]azetidin-1-yl]methanone]
7 | 52.9 | CS(=N)(=O)c1cccc(CC2CC3(C2)CN(C(=O)N2CC4(CC(n5cnc(C6(O)CC6)n5)C4)C2)C3)c1 (stereo not shown) [Example 374, [6-[3-(1-hydroxycyclopropyl)-1,2,4-triazol-1-yl]-2-azaspiro[3.3]heptan-2-yl]-[6-[[3-(methylsulfonimidoyl)phenyl]methyl]-2-azaspiro[3.3]heptan-2-yl]methanone]
8 | 12.7 | CP(C)(=O)c1ccc(CC2CC3(C2)CN(C(=O)N2CC4(CC(n5cnc(C(F)(F)F)n5)C4)C2)C3)cc1 [Example 375, [6-[(4-dimethyl-phosphorylphenyl)methyl]-2-azaspiro[3.3]heptan-2-yl]-[6-[3-(trifluoromethyl)-1,2,4-triazol-1-yl]-2-azaspiro[3.3]heptan-2-yl]methanone]
9 | 4.07 | CP(C)(=O)c1ccc(CC2CC3(C2)CN(C(=O)N2CC4(CC(n5cnc(C6CC6)n5)C4)C2)C3)cc1 [Example 376, [6-(3-cyclopropyl-1,2,4-triazol-1-yl)-2-azaspiro[3.3]heptan-2-yl]-[6-[(4-dimethyl-phosphorylphenyl)methyl]-2-azaspiro[3.3]heptan-2-yl]methanone]
10 | 392 | CP(C)(=O)c1ccc(CC2CC3(C2)CN(C(=O)N2CC4(CC(n5cnc(C(F)(F)F)n5)C4)C2)C3)nc1 [Example 377, [6-[(5-dimethylphosphoryl-2-pyridyl)methyl]-2-azaspiro[3.3]heptan-2-yl]-[6-[3-(trifluoromethyl)-1,2,4-triazol-1-yl]-2-azaspiro[3.3]heptan-2-yl]methanone]
11 | 106 | CP(C)(=O)c1ccc(CC2CC3(C2)CN(C(=O)N2CC4(CC(n5cnc(C6CC6)n5)C4)C2)C3)nc1 [Example 378, [6-(3-cyclopropyl-1,2,4-triazol-1-yl)-2-azaspiro[3.3]heptan-2-yl]-[6-[(5-dimethylphosphoryl-2-pyridyl)methyl]-2-azaspiro[3.3]heptan-2-yl]methanone]
12 | 3350 | CP(C)(=O)c1ccc(CN2CC3(C2)CN(C(=O)N2CC4(CC(n5cnc(C(F)(F)F)n5)C4)C2)C3)cc1 [Example 379, [6-[(4-dimethyl-phosphorylphenyl)methyl]-2,6-diazaspiro[3.3]heptan-2-yl]-[6-[3-(trifluoromethyl)-1,2,4-triazol-1-yl]-2-azaspiro[3.3]heptan-2-yl]methanone]
13 | 0.57 | O=C(N1CC2(CC(Cc3ccc(F)cc3F)C2)C1)N1CC2(CC(c3cncc(F)c3)C2)C1 [Example 380, [6-[(2,4-difluorophenyl)methyl]-2-azaspiro[3.3]heptan-2-yl]-[6-(5-fluoro-3-pyridyl)-2-azaspiro[3.3]heptan-2-yl]methanone]
14 | 0.44 | O=C(N1CC2(CC(Cc3ccc(OC(F)(F)F)nc3)C2)C1)N1CC2(CC(n3cnc(C4(O)CC4)n3)C2)C1 [Example 381]
15 | 52.4 | O=C(N1CC(C23CC(Cc4ccc(C(F)(F)F)nc4)(C2)C3)C1)N1CC2(CC(n3cnc(C4(O)CC4)n3)C2)C1 [Example 382, [6-[3-(1-hydroxycyclopropyl)-1,2,4-triazol-1-yl]-2-azaspiro[3.3]heptan-2-yl]-[3-[3-[[6-(trifluoromethyl)-3-pyridyl]methyl]-1-bicyclo[1.1.1]pentanyl]azetidin-1-yl]methanone]
16 | 39.8 | O=C(N1CC2(CC(Cc3ccc4[nH]ncc4n3)C2)C1)N1CC2(CC(n3cnc(C4(O)CC4)n3)C2)C1 [Example 383, [6-[3-(1-hydroxycyclopropyl)-1,2,4-triazol-1-yl]-2-azaspiro[3.3]heptan-2-yl]-[6-(1H-pyrazolo[4,3-b]pyridin-5-ylmethyl)-2-azaspiro[3.3]heptan-2-yl]methanone]
17 | 4.88 | O=C(N1CC(C23CC(Cc4nnc(C5CC5)[nH]4)(C2)C3)C1)N1CC2(CC(n3cnc(C4CC4)n3)C2)C1 [Example 384, [6-(3-cyclopropyl-1,2,4-triazol-1-yl)-2-azaspiro[3.3]heptan-2-yl]-[3-[3-[(5-cyclopropyl-4H-1,2,4-triazol-3-yl)methyl]-1-bicyclo[1.1.1]pentanyl]azetidin-1-yl]methanone]
18 | 1.25 | CS(=O)(=O)c1ccc(CC2CC3(C2)CN(C(=O)N2CC4(CC(n5cnc(C6(O)CC6)n5)C4)C2)C3)cc1C(F)(F)F [Example 385, [6-[3-(1-hydroxycyclopropyl)-1,2,4-triazol-1-yl]-2-azaspiro[3.3]heptan-2-yl]-[6-[[4-methylsulfonyl-3-(trifluoromethyl)phenyl]methyl]-2-azaspiro[3.3]heptan-2-yl]methanone]
19 | 142 | CS(=O)(=O)c1cc(Cl)ccc1-c1ccc(C2CN(C(=O)N3CC4(CC(c5ccc(C(F)(F)F)nc5)C4)C3)C2)cn1 [Example 386, [3-[6-(4-chloro-2-methylsulfonyl-phenyl)-3-pyridyl]azetidin-1-yl]-[6-[6-(trifluoromethyl)-3-pyridyl]-2-azaspiro[3.3]heptan-2-yl]methanone]
